Reference: publication PMC9227077, “Prediction Models for Brain Distribution of Drugs Based on Biomimetic Chromatographic Data” (Molecules, 2022)
Like-named read-outs stand apart in the source and are kept apart here.

Assays:
[1] = Unbound fraction in brain (fu,brain), brain homogenate method; settings: Kb from literature fu,brain
Excerpt: However, Kp,uu,brain can be derived from Kp,brain by combining the unbound fraction of the drug in the plasma (fu,p) and in the brain (fu,brain) or the unbound brain volume of distribution, Vu,brain [7]. […] The relevant equations are included in Section 3. Evidently, fu,p is obtained by standard methods for plasma protein binding.
Experimentally determined Kp,brain values for 42 compounds were obtained from the literature and were converted to logBB. They preferably referred to rat studies in order to achieve homogeneity in the data. Experimental fu,brain values were available from the literature for 39 compounds in the dataset. When more than one value was available, the average was calculated. Most values were determined on rats.
The decimal logarithm of Kb, logKb, was used for the development of the models.

[2] = cited from earlier work
human serum albumin = tested on: human serum albumin; parameters: method as in ref 45 (a number printed in a supplementary file, which may have a reference list of its own: not looked up in the article's list); settings: pH=7.4, isocratic, 10% acetonitrile; available for 37 compounds, remaining calculated by equation; cited from earlier work
[3] = experimental, cited from earlier work; for logP: octanol-water partition coefficient
[4] = most values in rats, average if more than one value; cited from earlier work
[5] = brain slice method; cited from earlier work
[6] = rat brain tissue; cited from earlier work
[7] = parameters: method as in ref 23, 24, 27, 29, 45 (a number printed in a supplementary file, which may have a reference list of its own: not looked up in the article's list); settings: 100% aqueous mobile phase, previously obtained in authors' laboratory, cited from earlier work

| Compound | logKb exper. [1] | logBB exper. ([2]; literature Kp,brain converted to logBB) | Kp,brain ([2]; total brain/total plasma, preferably rat studies) | logk10,HSA (human serum albumin) | logP [3] | logD ([3]; pH=5.0, octanol-water) | logD ([3]; pH=7.4, octanol-water) | fu,brain [4] | Vu,brain [5] [mL/g brain] | Kp,uu,brain [6] | logkw IAM ([7]; pH=5.0, PBS) | logkw IAM ([7]; pH=7.4, PBS) |
| --- | --- | --- | --- | --- | --- | --- | --- | --- | --- | --- | --- | --- |
| CCn1cc(C(=O)O)c(=O)c2cc(F)c(N3CCNCC3)cc21 [Norfloxacin] | 0.139 | -1.15 | 0.07 | -0.92 | -1.03 | -1.17 | -1.03 | 0.580 | 2.90 | 0.05 |  |  |
| CN(C)C(=O)Oc1cccc([N+](C)(C)C)c1 [Neostigmine] | 1.270 |  |  | -1.91 | -2.16 | -2.16 | -2.16 | 0.950 | 3.20 |  | -0.08 | 0.37 |
